Experimental data as given in patent US6358990B1, “Method for treating Alzheimer's disease” (Boehringer Mannheim Pharmaceuticals Corp., priority 1997, dated 2002).

System: IMR32 human neuroblastoma cells
Assay: Inhibition of the formation of toxic aggregates of beta-amyloid 1-40 peptide (MTT reduction in IMR32 cells)
Assay type: cell-based
Experimental: Determination of the Inhibition of the Formation of Toxic Aggregates of Beta-Amyloid 1-40 Peptide
Beta-amyloid (1-40) peptide from Bachem UK was dissolved in 0.1% acetic acid at 2 mg/ml and further diluted to 55 ug/ml in phosphate buffered saline (Sigma P4417) containing 0.02% Tween 20 (PBS-Tween). Candidate inhibitors were dissolved in DMSO at 10 mg/ml and further diluted in PBS-Tween. For each candidate inhibitor, 45 ul of 55 ug/ml peptide solution was incubated with 5 ul of appropriately diluted inhibitor overnight at 37° C. in Linbro Titertek EIA II shallow well plates (ICN, EIA II Microplates, cat no. 76-181-04). Plates were sealed with Dynatech Labs (cat # 001-010 3501) plate sealers.
MTT (3(4,5-dimethylthiazol-2-yl)-2,5-diphenyl tetrazolium bromide—Sigma) is a metabolic dye taken up by the mitochondria of viable cells and metabolised, yielding a blue formazan crystalline product. […]
For the assessment of toxicity, IMR32 human neuroblastoma cells (ECACC, Porton Down, UK) were plated at 6×10^4 cells/cm^2 in a 96 well microtitre plate (Nunc) in a volume of 100 ul growth medium (DMEM:Hams F12 1:1) per well and incubated for 2 h (CO2 incubator, 37° C.). […] Plates were read at 590 nm and inhibition of toxicity assessed as the difference in OD reading between cells in the presence and absence of candidate inhibitors. […]

COc1ccccc1OCCNCC(O)COc1cccc2[nH]c3ccccc3c12 (centres unmarked) [carvedilol]
shift of the beta-amyloid 1-40 concentration-response curve (decrease in MTT reduction) (50 ug/ml beta-amyloid 1-40 incubated overnight with 50 ug/ml carvedilol, cells challenged with 0 to 10 ng/ml beta-amyloid 1-40): marked shift to the right
decrease in MTT reduction (50 ug/ml carvedilol during the aggregation step, 0.1 to 1 ng/ml of peptide on IMR32 cells): no decrease in MTT reduction was observed
